Details: Liquid

FC(C(F)(F)F)C(F)(F)OCC(F)(F)C(F)(F)F (stereo unspecified)
Details	Critical density [kg/m3]	Critical pressure [kPa]	Critical temperature [K]	vapor or sublimation pressure [kPa]
–	567	–	–	–
312.48 K	–	–	–	14.7
342.64 K	–	–	–	54.8
352.72 K	–	–	–	79.1
362.78 K	–	–	–	113.1
372.77 K	–	–	–	157
382.71 K	–	–	–	211.7
402.89 K	–	–	–	360.6
412.9 K	–	–	–	460.7
422.79 K	–	–	–	575.4
432.96 K	–	–	–	717.1
443 K	–	–	–	881.9
453 K	–	–	–	1067.4
461.47 K	–	–	–	1255.3
473.07 K	–	–	–	1548.7
483.09 K	–	–	–	1842.8
486.67 K	–	–	–	1954.3
Direct measurement	–	1950	–	–
Visual observation in an unstirred cell	–	–	486.48	–

FC(F)C(F)(F)COC(F)(F)C(F)C(F)(F)F (stereo unspecified) [1,1,1,2,3,3-hexafluoro-3-(2,2,3,3-tetrafluoropropoxy)propane]
Details	Critical pressure [kPa]	Critical temperature [K]	vapor or sublimation pressure [kPa]
–	2172	516.21	–
285.28 K	–	–	6.2
302.65 K	–	–	12.5
312.63 K	–	–	19.8
322.62 K	–	–	30.9
332.69 K	–	–	45.8
342.69 K	–	–	62.9
352.75 K	–	–	88.5
362.72 K	–	–	129.9
372.8 K	–	–	175.3
382.83 K	–	–	229
392.86 K	–	–	294.8
402.89 K	–	–	374.7
412.92 K	–	–	469.1
422.94 K	–	–	581.8
432.97 K	–	–	715.5
443 K	–	–	870.9
453.03 K	–	–	1049.5
463.06 K	–	–	1252.9
473.08 K	–	–	1484.4
481.14 K	–	–	1745.4
490.97 K	–	–	2048
499.97 K	–	–	2137.8
500.79 K	–	–	2176.3

FC(F)C(F)(F)OCC(F)(F)C(F)(F)F [1,1,1,2,2-pentafluoro-3-(1,1,2,2-tetrafluoroethoxy)propane]
Details	Critical density [kg/m3]	Critical pressure [kPa]	Critical temperature [K]	vapor or sublimation pressure [kPa]
–	550	–	–	–
299.64 K	–	–	–	17.7
332.69 K	–	–	–	69.8
337.7 K	–	–	–	84
342.7 K	–	–	–	100.3
347.73 K	–	–	–	119.2
352.74 K	–	–	–	140.6
362.76 K	–	–	–	192.2
372.78 K	–	–	–	256.8
382.81 K	–	–	–	337.6
392.84 K	–	–	–	436.3
402.86 K	–	–	–	555.1
412.89 K	–	–	–	700
422.91 K	–	–	–	868.6
432.95 K	–	–	–	1066.1
442.97 K	–	–	–	1298
447.99 K	–	–	–	1427.4
453 K	–	–	–	1567.3
458.02 K	–	–	–	1718.4
464.03 K	–	–	–	1914.1
468.05 K	–	–	–	2055.2
473.08 K	–	–	–	2246.6
Direct measurement	–	2244	–	–
Visual observation in an unstirred cell	–	–	473.01	–

COC(F)(F)C(F)(F)C(F)F [1,1,2,2,3,3-hexafluoro-1-methoxypropane]
Details	Critical pressure [kPa]	Critical temperature [K]	vapor or sublimation pressure [kPa]
–	3032	486.98	–
301.9 K	–	–	22.4
312.59 K	–	–	35
322.63 K	–	–	52.9
332.69 K	–	–	77
337.67 K	–	–	92.1
342.69 K	–	–	109.2
352.73 K	–	–	151.1
362.74 K	–	–	204.9
372.78 K	–	–	273.4
382.81 K	–	–	357.4
392.84 K	–	–	458.8
402.87 K	–	–	581.1
412.87 K	–	–	726.2
422.91 K	–	–	898.8
432.94 K	–	–	1100.7
442.97 K	–	–	1333.7
452.99 K	–	–	1605.1
463.02 K	–	–	1921.8
473.04 K	–	–	2276.4
480.12 K	–	–	2562.9

FC(F)OCC(F)(F)F [1,1,1-trifluoro-2-(difluoromethoxy)ethane]
Details	Critical pressure [kPa]	Critical temperature [K]	vapor or sublimation pressure [kPa]
–	3457	444.88	–
294.35 K	–	–	72.3
298.14 K	–	–	84.3
300.2 K	–	–	91.5
303.14 K	–	–	102.8
313.12 K	–	–	148.1
323.16 K	–	–	207.8
333.19 K	–	–	284.6
343.23 K	–	–	381.2
353.26 K	–	–	500.9
363.3 K	–	–	646.8
373.34 K	–	–	823
383.37 K	–	–	1031.9
393.42 K	–	–	1282.6
403.45 K	–	–	1575.8
413.47 K	–	–	1919.5
423.52 K	–	–	2334.2
433.56 K	–	–	2798.5
443.56 K	–	–	3339.2

FC(F)C(F)(F)OCC(F)(F)F [2,2,2-trifluoroethyl 1,1,2,2-tetrafluoroethyl ether]
Details	Critical density [kg/m3]	Critical pressure [kPa]	Critical temperature [K]	vapor or sublimation pressure [kPa]
–	541	–	–	–
297.29 K	–	–	–	27.8
313.67 K	–	–	–	55.7
322.82 K	–	–	–	79.9
332.69 K	–	–	–	114.5
342.88 K	–	–	–	162
352.74 K	–	–	–	221.2
362.7 K	–	–	–	296.8
372.69 K	–	–	–	391.4
382.81 K	–	–	–	510.6
392.83 K	–	–	–	651.7
402.83 K	–	–	–	821.2
413.9 K	–	–	–	1046.2
422.92 K	–	–	–	1260.9
432.91 K	–	–	–	1536.4
442.98 K	–	–	–	1859.3
452.95 K	–	–	–	2231
462.99 K	–	–	–	2668.5
463.89 K	–	–	–	2713.3
463.94 K	–	–	–	2715.8
Direct measurement	–	2713	–	–
Visual observation in an unstirred cell	–	–	463.89	–

COCC(F)(F)C(F)(F)C(F)(F)C(F)F [1,1,2,2,3,3,4,4-octafluoro-5-methoxypentane]
Details	Critical pressure [kPa]	Critical temperature [K]	vapor or sublimation pressure [kPa]
–	2392	546.1	–
301.49 K	–	–	2.3
312.42 K	–	–	4
322.54 K	–	–	6.9
332.62 K	–	–	11.2
342.67 K	–	–	18.1
352.72 K	–	–	29.1
362.75 K	–	–	48
372.79 K	–	–	74.3
382.81 K	–	–	106.8
392.83 K	–	–	147.1
402.86 K	–	–	193.8
412.89 K	–	–	250.4
422.92 K	–	–	320.1
432.94 K	–	–	395.7
442.97 K	–	–	482.8
452.99 K	–	–	585.8
463 K	–	–	710.7
473.04 K	–	–	849.5
483.07 K	–	–	1006.9
492.89 K	–	–	1184.9
502.72 K	–	–	1385.9
512.54 K	–	–	1615.9
522.34 K	–	–	1873.5
532.17 K	–	–	2168.7
541.94 K	–	–	2471.9
545.63 K	–	–	2602.5

CCOC(F)(F)C(F)(F)C(F)(F)C(F)(F)F [1-ethoxy-1,1,2,2,3,3,4,4,4-nonafluorobutane]
Details	Critical density [kg/m3]	Critical pressure [kPa]	Critical temperature [K]	vapor or sublimation pressure [kPa]
–	518	–	–	–
309.21 K	–	–	–	22.5
332.68 K	–	–	–	57
342.71 K	–	–	–	80.7
347.73 K	–	–	–	95.4
382.82 K	–	–	–	271.9
392.84 K	–	–	–	349.2
402.87 K	–	–	–	443.3
412.66 K	–	–	–	553.4
422.65 K	–	–	–	684.8
432.89 K	–	–	–	835.3
443.2 K	–	–	–	1011.6
453.14 K	–	–	–	1212.9
473.46 K	–	–	–	1720.7
Direct measurement	–	1976	–	–
Visual observation in an unstirred cell	–	–	482.02	–

Reference: the NIST ThermoML archive (doi:10.1021/je0201976)
